These results are taken from ChEMBL document CHEMBL5360622, “Leucettinibs, a Class of DYRK/CLK Kinase Inhibitors Inspired by the Marine Sponge Natural Product Leucettamine B” (J Med Chem, 2023).

The target of assay [1] is T1, Dual specificity tyrosine-phosphorylation-regulated kinase 4 (Homo sapiens, UniProt Q9NR20).
T1 sequence (Q9NR20 whole entry): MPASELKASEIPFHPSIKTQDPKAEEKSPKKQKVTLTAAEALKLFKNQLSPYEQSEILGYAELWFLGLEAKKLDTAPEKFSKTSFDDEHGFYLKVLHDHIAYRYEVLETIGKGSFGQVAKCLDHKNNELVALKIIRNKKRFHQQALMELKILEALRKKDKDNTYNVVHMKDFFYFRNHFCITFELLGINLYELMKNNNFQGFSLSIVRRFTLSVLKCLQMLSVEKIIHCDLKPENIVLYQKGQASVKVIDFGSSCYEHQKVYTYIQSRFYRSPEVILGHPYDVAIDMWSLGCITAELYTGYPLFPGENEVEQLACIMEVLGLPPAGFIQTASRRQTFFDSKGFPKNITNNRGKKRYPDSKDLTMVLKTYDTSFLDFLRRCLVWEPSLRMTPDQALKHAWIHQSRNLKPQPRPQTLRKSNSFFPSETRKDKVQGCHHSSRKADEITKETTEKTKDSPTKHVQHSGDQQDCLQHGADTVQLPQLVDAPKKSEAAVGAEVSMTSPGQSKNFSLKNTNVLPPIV

Assay [2] addresses T2, Dual specificity tyrosine-phosphorylation-regulated kinase 3 (Homo sapiens, UniProt O43781).
T2 sequence (O43781 whole entry): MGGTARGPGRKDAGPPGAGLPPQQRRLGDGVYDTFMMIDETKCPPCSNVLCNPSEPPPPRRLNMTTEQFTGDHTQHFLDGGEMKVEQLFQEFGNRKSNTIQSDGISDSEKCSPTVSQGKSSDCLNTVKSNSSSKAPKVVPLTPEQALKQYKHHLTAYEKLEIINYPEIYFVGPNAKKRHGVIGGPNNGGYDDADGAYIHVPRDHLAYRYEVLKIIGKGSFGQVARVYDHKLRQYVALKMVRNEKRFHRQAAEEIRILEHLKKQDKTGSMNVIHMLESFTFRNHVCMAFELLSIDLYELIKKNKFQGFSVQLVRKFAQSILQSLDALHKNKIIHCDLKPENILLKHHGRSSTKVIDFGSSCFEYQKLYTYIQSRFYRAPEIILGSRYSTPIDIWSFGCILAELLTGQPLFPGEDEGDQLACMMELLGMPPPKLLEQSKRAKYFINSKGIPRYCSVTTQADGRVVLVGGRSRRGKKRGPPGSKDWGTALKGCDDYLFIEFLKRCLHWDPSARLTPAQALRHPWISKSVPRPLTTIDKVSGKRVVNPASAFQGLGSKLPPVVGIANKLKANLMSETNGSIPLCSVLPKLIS

Assay [3] has as its target Glycogen synthase kinase-3 beta (Homo sapiens, UniProt P49841). Type of assay: cell-based, Sf9.
Assay [4] addresses Dual specificity protein kinase CLK3 (Homo sapiens, UniProt P49761). Type of assay: cell-based, Sf9.
The target in assay [5] is T3, Dual specificity tyrosine-phosphorylation-regulated kinase 2 (Homo sapiens, UniProt Q92630).
T3 sequence (Q92630 whole entry): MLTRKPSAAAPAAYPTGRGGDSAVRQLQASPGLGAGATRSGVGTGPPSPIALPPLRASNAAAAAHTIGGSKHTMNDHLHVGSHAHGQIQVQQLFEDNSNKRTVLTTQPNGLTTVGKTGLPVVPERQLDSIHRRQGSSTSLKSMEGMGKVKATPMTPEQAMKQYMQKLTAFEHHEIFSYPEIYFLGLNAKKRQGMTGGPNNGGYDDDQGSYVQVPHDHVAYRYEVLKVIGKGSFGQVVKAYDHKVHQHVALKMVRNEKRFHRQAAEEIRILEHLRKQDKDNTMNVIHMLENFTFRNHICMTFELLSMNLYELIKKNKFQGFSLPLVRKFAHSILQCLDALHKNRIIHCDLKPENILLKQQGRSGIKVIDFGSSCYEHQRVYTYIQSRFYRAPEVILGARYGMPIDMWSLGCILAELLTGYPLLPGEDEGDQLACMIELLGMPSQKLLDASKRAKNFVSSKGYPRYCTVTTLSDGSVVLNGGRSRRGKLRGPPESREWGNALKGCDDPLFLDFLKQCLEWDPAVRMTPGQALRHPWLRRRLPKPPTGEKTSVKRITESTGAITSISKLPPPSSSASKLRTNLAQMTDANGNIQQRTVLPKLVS

The target of assay [6] is Casein kinase I isoform epsilon (Homo sapiens, UniProt P49674).
Casein kinase I isoform epsilon, sequence (P49674 whole entry, canonical isoform): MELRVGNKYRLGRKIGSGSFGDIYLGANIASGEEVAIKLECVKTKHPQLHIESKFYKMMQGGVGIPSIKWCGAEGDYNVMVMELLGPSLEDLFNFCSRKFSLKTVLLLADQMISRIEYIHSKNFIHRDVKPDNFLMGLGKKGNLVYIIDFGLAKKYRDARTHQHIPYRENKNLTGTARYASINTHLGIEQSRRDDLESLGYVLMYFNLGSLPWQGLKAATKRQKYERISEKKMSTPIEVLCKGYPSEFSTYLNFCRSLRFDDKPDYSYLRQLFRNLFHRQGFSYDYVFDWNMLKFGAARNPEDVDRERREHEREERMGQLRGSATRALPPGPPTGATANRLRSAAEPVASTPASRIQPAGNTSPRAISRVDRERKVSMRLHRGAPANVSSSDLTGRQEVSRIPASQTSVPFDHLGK
In assay [7] the target is Dual specificity protein kinase CLK2 (Homo sapiens, UniProt P49760).
Dual specificity protein kinase CLK2, sequence (P49760 whole entry): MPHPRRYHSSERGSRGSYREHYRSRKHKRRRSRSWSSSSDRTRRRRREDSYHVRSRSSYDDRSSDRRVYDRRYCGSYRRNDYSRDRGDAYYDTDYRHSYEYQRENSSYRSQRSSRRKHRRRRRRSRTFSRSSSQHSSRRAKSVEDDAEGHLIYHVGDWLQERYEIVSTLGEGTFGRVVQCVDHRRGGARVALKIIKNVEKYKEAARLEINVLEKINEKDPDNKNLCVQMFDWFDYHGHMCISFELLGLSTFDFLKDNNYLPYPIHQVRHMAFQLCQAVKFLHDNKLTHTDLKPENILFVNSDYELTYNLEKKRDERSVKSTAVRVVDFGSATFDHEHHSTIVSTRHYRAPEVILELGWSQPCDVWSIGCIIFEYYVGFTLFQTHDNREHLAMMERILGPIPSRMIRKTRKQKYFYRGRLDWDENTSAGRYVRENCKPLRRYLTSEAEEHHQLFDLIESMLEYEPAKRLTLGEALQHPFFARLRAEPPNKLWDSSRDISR
Assay [8] addresses Cyclin-dependent kinase 5/CDK5 activator 1 (Homo sapiens, UniProt Q00535). Type of assay: cell-based, Sf9.

Dual specificity protein kinase CLK3, sequence (P49761 whole entry): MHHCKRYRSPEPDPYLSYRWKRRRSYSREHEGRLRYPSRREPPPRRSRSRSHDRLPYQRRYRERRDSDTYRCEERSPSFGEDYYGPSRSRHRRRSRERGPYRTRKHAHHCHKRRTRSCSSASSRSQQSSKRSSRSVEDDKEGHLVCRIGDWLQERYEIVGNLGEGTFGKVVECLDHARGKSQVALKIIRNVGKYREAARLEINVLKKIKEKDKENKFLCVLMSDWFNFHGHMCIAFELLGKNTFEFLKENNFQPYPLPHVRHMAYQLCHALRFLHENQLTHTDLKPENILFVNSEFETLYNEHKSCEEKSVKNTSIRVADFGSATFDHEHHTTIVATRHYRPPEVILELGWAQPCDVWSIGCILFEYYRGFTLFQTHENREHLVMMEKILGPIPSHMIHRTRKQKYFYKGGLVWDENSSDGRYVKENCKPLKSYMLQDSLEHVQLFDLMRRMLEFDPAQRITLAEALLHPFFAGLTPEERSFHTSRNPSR
Cyclin-dependent kinase 5/CDK5 activator 1, sequence (Q00535 whole entry): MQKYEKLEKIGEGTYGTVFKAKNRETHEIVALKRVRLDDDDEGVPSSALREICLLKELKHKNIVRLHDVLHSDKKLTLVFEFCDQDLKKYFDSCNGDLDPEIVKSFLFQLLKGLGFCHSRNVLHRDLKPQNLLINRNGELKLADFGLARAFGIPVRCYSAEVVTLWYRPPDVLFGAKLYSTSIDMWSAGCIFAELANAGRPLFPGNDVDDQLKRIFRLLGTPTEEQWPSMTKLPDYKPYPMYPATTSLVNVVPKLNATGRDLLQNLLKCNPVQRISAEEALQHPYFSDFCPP
Cyclin-dependent kinase 5/CDK5 activator 1, sequence (Q15078 whole entry, further chain): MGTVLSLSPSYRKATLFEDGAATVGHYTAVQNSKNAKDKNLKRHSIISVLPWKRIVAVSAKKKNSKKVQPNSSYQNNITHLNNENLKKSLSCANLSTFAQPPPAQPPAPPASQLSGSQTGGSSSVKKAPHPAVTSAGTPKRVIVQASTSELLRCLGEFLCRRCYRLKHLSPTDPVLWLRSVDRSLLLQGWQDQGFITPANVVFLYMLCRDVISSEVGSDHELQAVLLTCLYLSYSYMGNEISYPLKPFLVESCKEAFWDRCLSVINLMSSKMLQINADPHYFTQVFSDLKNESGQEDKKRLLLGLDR
Glycogen synthase kinase-3 beta, sequence (P49841 whole entry): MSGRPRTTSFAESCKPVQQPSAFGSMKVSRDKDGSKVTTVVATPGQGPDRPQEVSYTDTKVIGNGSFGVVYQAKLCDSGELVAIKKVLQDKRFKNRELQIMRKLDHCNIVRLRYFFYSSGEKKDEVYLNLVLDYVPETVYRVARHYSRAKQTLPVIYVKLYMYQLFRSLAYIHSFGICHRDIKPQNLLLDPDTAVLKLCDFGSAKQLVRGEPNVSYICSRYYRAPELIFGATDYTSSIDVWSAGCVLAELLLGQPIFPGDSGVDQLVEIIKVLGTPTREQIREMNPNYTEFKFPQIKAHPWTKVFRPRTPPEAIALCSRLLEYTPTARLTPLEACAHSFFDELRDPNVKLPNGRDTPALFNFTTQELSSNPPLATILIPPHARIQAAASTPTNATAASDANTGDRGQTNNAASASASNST

For `O=C1NC(NC2CC3CCC2C3)=N/C1=C\c1ccc2ncsc2c1` (racemic), the IC50 in assay [1] was 260 nM; in assay [2] it was 337 nM; in assay [3], 3.26 µM; in assay [4] it was 143 nM; in assay [5], 240 nM; in assay [6] it was above 10 µM. The IC50 is 127 nM in assay [7] and above 10 µM in assay [8].
`O=C1NC(N[C@@H](CO)CC2CCC2)=N/C1=C\c1ccc2ncsc2c1`: the concentration for half-maximal inhibition (IC50) in assay [1] was 1670 nM; in assay [2] it was 1250 nM; in assay [3], 2.41 µM; in assay [4], 720 nM; in assay [5] it was 1910 nM; in assay [6], above 10 µM. Besides, the IC50 in assay [8] was above 10 µM.
With `O=C1NC(Nc2cccc(OC(F)F)c2)=N/C1=C\c1ccc2ncsc2c1`, the IC50 in assay [1] is 2730 nM; in assay [2], 706 nM; in assay [3], 3.68 µM; in assay [4], 710 nM; in assay [5] it was 760 nM; in assay [7], 134 nM. The compound further displayed an IC50 in assay [8] above 10 µM.
In the case of `O=C1NC(N[C@@H]2CCCC[C@@H](O)C2)=N/C1=C\c1ccc2ncsc2c1` (racemic), the IC50 in assay [1] is 1250 nM; in assay [2], 706 nM; in assay [3], 4.37 µM; in assay [4] it was 309 nM; in assay [5], 258 nM; in assay [8], above 10 µM.
With `O=C1NC(NC2CC23CCCCC3)=N/C1=C\c1ccc2ncsc2c1` (centres undefined), the IC50 in assay [1] is 938 nM; in assay [2], 343 nM; in assay [3], 0.854 µM; in assay [4], 341 nM; in assay [5], 355 nM; in assay [6], above 10 µM. Moreover, in assay [8], the IC50 was above 10 µM.
Regarding `CO[C@H]1CCCC[C@H]1NC1=N/C(=C\c2ccc3ncsc3c2)C(=O)N1` (racemic), the concentration for half-maximal inhibition (IC50) in assay [1] is 731 nM; in assay [2], 1060 nM; in assay [3], 9.54 µM; in assay [4] it was 1130 nM; in assay [5], 1570 nM; in assay [7], 648 nM. This compound also came in with an IC50 in assay [8] above 10 µM.
Consider `Cc1csc(CNC2=N/C(=C\c3ccc4ncsc4c3)C(=O)N2)n1`, for which the IC50 in assay [1] was 954 nM; in assay [2], 1800 nM; in assay [3], 2.15 µM; in assay [4] it was 376 nM; in assay [6] it was above 10 µM; in assay [7], 33 nM. In addition, the IC50 in assay [8] was above 10 µM.
On to `O=C1NC(NC2CCCCC2(F)F)=N/C1=C\c1ccc2ncsc2c1` (racemic), for which the IC50 was 143 nM in assay [1]; 119 nM in assay [2]; 5.56 µM in assay [3]; 127 nM in assay [4]; above 10 µM in assay [6]; 28 nM in assay [7]. The same compound showed a 50% inhibitory concentration (IC50) in assay [8] above 10 µM.
As for `CO[C@H]1CCCC[C@@H]1NC1=N/C(=C\c2ccc3ncsc3c2)C(=O)N1`, the IC50 in assay [1] was found to be 439 nM; in assay [2], 1200 nM; in assay [3] it was 8.75 µM; in assay [4] it was 628 nM; in assay [5] it was 777 nM; in assay [7] it was 100 nM. Besides, the IC50 in assay [8] is above 10 µM.
Take `Cc1ccc(CNC2=N/C(=C\c3ccc4ncsc4c3)C(=O)N2)c(C)c1`: the IC50 in assay [1] was 9220 nM; in assay [2] it was 4200 nM; in assay [3], above 10 µM; in assay [4], 518 nM; in assay [6] it was above 10 µM; in assay [8], above 10 µM.
For `O=C1NC(N[C@@H](CO)CC2CCCC2)=N/C1=C\c1ccc2ncsc2c1`, the IC50 in assay [1] is 1720 nM; in assay [3] it was 2.87 µM; in assay [4] it was 1460 nM; in assay [5], 4010 nM; in assay [6], above 10 µM; in assay [7], 40 nM. Also, the IC50 in assay [8] was above 10 µM.
For the compound `O=C1NC(NCc2ccccc2C(F)(F)F)=N/C1=C\c1ccc2ncsc2c1`, the IC50 in assay [1] is 2550 nM; in assay [2] it was 434 nM; in assay [3] it was 6.92 µM; in assay [4], 135 nM; in assay [6], above 10 µM; in assay [7], 15 nM. For the same compound, in assay [8], the half-maximal inhibitory concentration (IC50) was above 10 µM.
For the compound `C[C@@H]1[C@H]2C[C@@H](C[C@H]1NC1=N/C(=C\c3ccc4ncsc4c3)C(=O)N1)C2(C)C`, the IC50 in assay [1] is 719 nM; in assay [2], 1010 nM; in assay [3], above 10 µM; in assay [4], 795 nM; in assay [6], above 10 µM; in assay [8] it was above 10 µM.
With `COC[C@H](NC1=N/C(=C\c2ccc3ncsc3c2)C(=O)N1)c1ccccc1`, the IC50 in assay [1] is 335 nM; in assay [3], 5.17 µM; in assay [4] it was 127 nM; in assay [5] it was 159 nM; in assay [6] it was above 10 µM; in assay [7] it was 15 nM. This compound also registered an IC50 in assay [8] above 10 µM.
Take `O=C1NC(N[C@@H]2CCCC[C@H](O)C2)=N/C1=C\c1ccc2ncsc2c1` (racemic): the IC50 in assay [1] was 698 nM; in assay [2], 753 nM; in assay [3], 6.04 µM; in assay [4], 646 nM; in assay [5] it was 174 nM; in assay [8] it was above 10 µM.
Regarding `O=C1NC(Nc2ccccn2)=N/C1=C\c1ccc2ncsc2c1`, the IC50 in assay [2] is 350 nM; in assay [3] it was 1.66 µM; in assay [4], 211 nM; in assay [5] it was 256 nM; in assay [6] it was above 10 µM; in assay [7], 117 nM. Further, in assay [8], the IC50 was above 10 µM.
With `O=C1NC(N[C@@H](CO)CC2CC2)=N/C1=C\c1ccc2ncsc2c1`, the IC50 in assay [1] is 731 nM; in assay [3] it was 4.39 µM; in assay [4] it was 686 nM; in assay [5], 8210 nM; in assay [6] it was above 10 µM; in assay [7] it was 42 nM. Moreover, in assay [8], the IC50 was above 10 µM.
`CC[C@H](CO)NC1=N/C(=C\c2ccc3ncsc3c2)C(=O)N1`: the IC50 in assay [1] was 1600 nM; in assay [3], above 10 µM; in assay [4], 1150 nM; in assay [5], 1550 nM; in assay [6], above 10 µM; in assay [7] it was 216 nM. In assay [8], the IC50 was above 10 µM.
On to `COC[C@@H](NC1=N/C(=C\c2ccc3ncsc3c2)C(=O)N1)c1ccccc1`, for which the IC50 in assay [1] was 3790 nM; in assay [3] it was 5.6 µM; in assay [4], 450 nM; in assay [5], 260 nM; in assay [6], above 10 µM; in assay [7], 616 nM. Also, the IC50 in assay [8] is above 10 µM.
On to `CO[C@@H]1CCCC[C@H]1NC1=N/C(=C\c2ccc3ncsc3c2)C(=O)N1`, for which the IC50 in assay [1] was 551 nM; in assay [2] it was 1360 nM; in assay [3], above 10 µM; in assay [4], 382 nM; in assay [5] it was 342 nM; in assay [7] it was 310 nM. This compound also yielded an IC50 in assay [8] above 10 µM.
Regarding `CC(C)(C)OC(=O)N1CCC(CNC2=N/C(=C\c3ccc4ncsc4c3)C(=O)N2)CC1`, the IC50 was above 10000 nM in assay [1]; above 10000 nM in assay [2]; 5.27 µM in assay [3]; 8620 nM in assay [4]; above 10 µM in assay [6]; 2200 nM in assay [7]. For the same compound, the IC50 in assay [8] was above 10 µM.

As usually defined, the IC50 is the concentration that inhibits the measured activity by half.
